According to patent US20150344407A1, “FENDILINE DERIVATIVES AND METHODS OF USE THEREOF” (THE BOARD OF REGENTS OF THE UNIVERSITY OF TEXAS SYSTEM, priority 2012, published 2015):

Legend:
[1] = molecular target: T1, GFP-tagged K-rasG12V (oncogenic K-ras) in MDCK cells (Homo sapiens, UniProt P01116, G12V); assay: K-ras mislocalization, confocal fluorescence microscopy with densitometric analysis; type: cell-based, canine; settings: 48 hours, MDCK cells stably expressing GFP-tagged K-rasG12V, normalized to vehicle-treated control
T1 construct: mGFP-tagged full length oncogenic mutant K-Ras (GFP-K-RasG12V); expressed in transfected cells
Method: FIGS. 1 & 2—Representative images showing degree of K-ras mislocalization with compound treatment (images corresponds with column 3 of Table 2). MDCK cells stably expressing GFP-tagged K-rasG12V were treated with vehicle or compound (4 μM) for 48 hours and fixed with 4% paraformaldehyde. The coverslips were mounted in Mowiol and imaged by confocal microscopy (Nikon A1) using a 60× objective. The number above each image corresponds the fendiline derivative code.
(§1) To determine the effect of compounds on localization of K-ras, Mardine Darby canine kidney epithelial (MDCK) cells stably expressing GFP-tagged K-rasG12V (oncogenic K-ras) grown on cover slips were treated with vehicle or compound (4 μM) for 48 hours and fixed with 4% paraformaldehyde. The coverslips were mounted in Mowiol and imaged by confocal microscopy (Nikon A1) using a 60× objective. Images were analyzed by ImageJ software. Densitometric analysis was performed on images to determine the degree of K-ras mislocalization. To determine the effect of compounds on K-ras function, MDCK cells stably expressing GFP-tagged K-rasG12V were treated with vehicle or compound (4 μM) for 48 hours. Following treatment, whole cell lysates were prepared and subjected SDS-PAGE and western blotting to quantify the level of phosphorylated ERK, a protein activated downstream of K-ras. All calculations were normalized to vehicle-treated control.
Fluorescence microscopy: 2×10^5 or 1×10^5 cells/well were seeded in 6- or 12-well cell culture plates, respectively, containing glass coverslips. 24 h after seeding, fresh medium containing 1% vehicle (Dimethyl sulfoxide, DMSO) or 4 μM test compound (1:100 dilution, such that DMSO was 1%) was added and incubated for 48 h, following which the cells were fixed with 4% paraformaldehyde and coverslips were mounted in Mowiol. Cells were imaged in the GFP wavelength (488 nm) using a confocal microscope (Nikon A1) with 60× objective. Images were saved in tagged imaged file format (tiff) and analyzed by ImageJ software. The densitometric ratio of plasma membrane localized K-Ras versus total K-Ras was calculated and normalized to vehicle-treated control.

[2] = tested on: phosphorylated ERK, a protein activated downstream of K-ras; assay: Western immunoblotting for pERK (inhibition of ERK activation); type: cell-based, canine; settings: Canis lupus familiaris; 4 μM compound, 48 hours, MDCK cells stably expressing GFP-tagged K-rasG12V; whole cell lysates; normalized to vehicle-treated control; read-out: % Inhibition of ERK activation when treated with 4 μM compound
Method: as §1
Western Immunoblotting for pERK: 2×10^5 cells/well were seeded in 6-well cell culture plates. 24 h after seeding, fresh medium containing 1% vehicle (DMSO) or 4 μM test compound (1:100 dilution, such that DMSO was 1%) was added and incubated for 48 h. Cells were lysed in Buffer B (50 mM Tris [pH 7.5], 75 mM NaCl, 25 mM NaF, 5 mM MgCl2, 5 mM EGTA, 1 mM dithiothreitol, 100 μM NaVO4, 1% Nonidet P-40 plus protease inhibitors). SDS-PAGE and immunoblotting with the anti-phospho-p44/42 mitogen-activated protein kinase (MAPK) (ERK1/2) antibody was performed using 20 μg of each whole cell lysate. Signal was detected by enhanced chemiluminescence (SuperSignal; Pierce, Thermo Fisher Scientific, Rockford, Ill.) and imaged by FluorChemQ (Alpha Inotech, San Leandro, Calif.). Quantification of intensities was performed using FluorChemQ software. Results were normalized to vehicle-treated control.

chemotaxis = assay: Inhibition of chemotaxis; settings: preliminary data

## CC(NCCC(c1ccccc1)c1ccccc1)c1ccccc1 (stereo not drawn) [Fendiline, 3,3-diphenyl-N-(1-phenylethyl)propan-1-amine]
[1]
  % Mislocalization of K-ras when treated with 4 μM compound: 20.53%
[2]
  inhibition at 4 µM: 7.37%
chemotaxis
  Inhibition of chemotaxis: effective at inhibiting chemotaxis at picomolar and nanomolar concentrations
